Like-named read-outs stand apart in the source and are kept apart here. Marks after values point to notes of the source that are not given here.
How the values were obtained:
[1] = biological target: T1, epithelial sodium channel (Canis lupus familiaris, UniProt A0A8I3MKE6+A0A8I3Q679+Q95165); experiment: Inhibition of short-circuit current (ISC) in airway epithelial monolayers in Ussing chambers; assay type: cell-based, canine
T1 construct: endogenous in cells; host or cells: primary canine bronchial epithelial cells cultured at air-liquid interface
T1 sequence (A0A8I3Q679 1-649): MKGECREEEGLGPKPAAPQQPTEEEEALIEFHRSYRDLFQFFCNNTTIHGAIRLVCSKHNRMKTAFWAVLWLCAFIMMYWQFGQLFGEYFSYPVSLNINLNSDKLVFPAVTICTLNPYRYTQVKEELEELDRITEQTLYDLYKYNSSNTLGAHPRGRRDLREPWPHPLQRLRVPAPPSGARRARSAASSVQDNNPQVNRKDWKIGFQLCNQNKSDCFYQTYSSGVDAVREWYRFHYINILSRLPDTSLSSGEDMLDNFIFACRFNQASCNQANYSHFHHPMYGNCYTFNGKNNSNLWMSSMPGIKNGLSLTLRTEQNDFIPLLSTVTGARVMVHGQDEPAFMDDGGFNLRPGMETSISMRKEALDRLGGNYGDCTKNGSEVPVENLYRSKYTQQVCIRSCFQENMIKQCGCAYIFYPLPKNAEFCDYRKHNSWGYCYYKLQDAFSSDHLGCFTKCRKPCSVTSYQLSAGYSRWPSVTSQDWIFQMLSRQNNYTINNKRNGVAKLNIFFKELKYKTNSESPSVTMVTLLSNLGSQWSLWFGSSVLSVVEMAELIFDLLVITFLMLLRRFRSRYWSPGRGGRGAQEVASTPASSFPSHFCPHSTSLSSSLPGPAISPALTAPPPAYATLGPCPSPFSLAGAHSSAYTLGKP
T1 sequence (Q95165 1-641): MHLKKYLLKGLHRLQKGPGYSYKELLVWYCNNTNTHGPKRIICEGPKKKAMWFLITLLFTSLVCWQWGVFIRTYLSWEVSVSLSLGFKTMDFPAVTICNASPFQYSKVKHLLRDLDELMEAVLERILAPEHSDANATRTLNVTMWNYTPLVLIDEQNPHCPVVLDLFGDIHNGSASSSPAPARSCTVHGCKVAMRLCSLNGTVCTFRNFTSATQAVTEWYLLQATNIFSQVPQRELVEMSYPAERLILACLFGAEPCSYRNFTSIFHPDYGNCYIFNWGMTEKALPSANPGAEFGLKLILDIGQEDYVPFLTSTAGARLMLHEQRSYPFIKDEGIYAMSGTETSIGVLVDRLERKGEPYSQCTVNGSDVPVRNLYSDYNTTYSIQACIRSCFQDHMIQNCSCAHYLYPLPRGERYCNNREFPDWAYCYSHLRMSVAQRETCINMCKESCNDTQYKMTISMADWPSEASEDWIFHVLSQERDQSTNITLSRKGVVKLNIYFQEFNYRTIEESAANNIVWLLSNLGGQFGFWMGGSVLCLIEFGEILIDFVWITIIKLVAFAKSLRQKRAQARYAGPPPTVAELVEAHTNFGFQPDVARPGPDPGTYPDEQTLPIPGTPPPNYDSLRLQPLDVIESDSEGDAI
T1 sequence (A0A8I3MKE6 1-646): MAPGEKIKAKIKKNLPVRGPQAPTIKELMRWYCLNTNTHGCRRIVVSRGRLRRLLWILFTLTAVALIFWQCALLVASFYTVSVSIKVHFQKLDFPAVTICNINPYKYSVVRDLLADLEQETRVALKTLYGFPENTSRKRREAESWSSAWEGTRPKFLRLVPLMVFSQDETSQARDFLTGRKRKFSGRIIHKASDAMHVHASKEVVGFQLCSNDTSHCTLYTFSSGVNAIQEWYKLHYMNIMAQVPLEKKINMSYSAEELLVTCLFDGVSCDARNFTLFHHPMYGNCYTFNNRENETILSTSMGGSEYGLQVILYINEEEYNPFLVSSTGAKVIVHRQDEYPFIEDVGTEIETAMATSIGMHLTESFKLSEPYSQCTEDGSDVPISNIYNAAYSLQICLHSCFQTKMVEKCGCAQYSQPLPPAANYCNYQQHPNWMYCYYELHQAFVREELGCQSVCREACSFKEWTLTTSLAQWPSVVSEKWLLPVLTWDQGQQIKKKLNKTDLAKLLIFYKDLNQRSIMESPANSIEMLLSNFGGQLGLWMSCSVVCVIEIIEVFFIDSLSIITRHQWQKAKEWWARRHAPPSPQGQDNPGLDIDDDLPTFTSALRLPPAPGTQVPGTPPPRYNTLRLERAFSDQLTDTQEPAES
Protocol: One assay used to assess mechanism of action and/or potency of the compounds of the present invention involves the determination of lumenal drug inhibition of airway epithelial sodium currents measured under short circuit current (ISC) using airway epithelial monolayers mounted in Using chambers. Cells obtained from freshly excised human, dog, sheep or rodent airways are seeded onto porous 0.4 micron Snapwelff Inserts (CoStar), cultured at air-liquid interface (ALI) conditions in hormonally defined media, and assayed for sodium transport activity (ISC) while bathed in Krebs Bicarbonate Ringer (KBR) in Using chambers. All test drug additions are to the lumenal bath with half-log dose addition protocols (from 1×10^−11 M to 3×10^−5 M), and the cumulative change in ISC (inhibition) recorded. All drugs are prepared in dimethyl sulfoxide as stock solutions at a concentration of 1×10^−2 M and stored at −20° C. […] After the maximal concentration ([…]) is administered, the lumenal bath is exchanged three times with fresh drug-free KBR solution, and the resultant ISC measured after each wash for approximately 5 minutes in duration. Reversibility is defined as the percent return to the baseline value for sodium current after the third wash. All data from the voltage clamps are collected via a computer interface and analyzed off-line.
Dose-effect relationships for all compounds are considered and analyzed by the Prism 3.0 program.

Sheep MCC = experiment: Mucociliary clearance (MCC) studies in sheep; assay type: in vivo; settings: sheep, 0.24 nmol/kg (3 μM); for effect on MCC compared to vehicle: 4 h post-dose; for AUC (% Cl-h) / Initial Slope (4.0-4.5 h): aerosol, MCC at 4 h post-dose
Protocol: The animal model that has been used most often to measure changes in MCC is the sheep model. The effect of compounds for enhancing mucociliary clearance (MCC) can be measured using an in vivo model described by Sabater et al., Journal of Applied Physiology, 1999, pp. 2191-2196, incorporated herein by reference.
In these studies, adult sheep were restrained and nasally intubated with an endotracheal tube. Aerosolized test articles were administered over 10-15 minutes to sheep. Radiolabeled ^99mTc-sulfur colloid (TSC, 3.1 mg/mL; containing approximately 20 mCi) was then administered at a specified time four or eight hours after test article. The radiolabeled aerosol was administered through the endotracheal tube for about 5 minutes. The sheep were then extubated, and total radioactive counts in the lung were measured every 5 minutes for a 1-hour observation period. The rate of radiolabel clearance from the lung is representative of the MCC rate in the animal. The advantage of this system is that it closely simulates the human lung environment. The model also allows for the collection of simultaneous PK/PD information through plasma and urine sampling over the test period. There are also several techniques to measure the drug concentrations on the airway surface during the MCC measurements. These include the collection of exhaled breath condensates or a filter paper method to obtain ASL via bronchoscopy.
The ovine model described above was used to evaluate the in vivo effects (efficacy/durability) of aerosol-delivered test agent on MCC. Treatments consisting of either 4 mL of test agent or test agent in combination with HS were tested. To determine if combining HS with test agent enhanced MCC, HS was administered immediately following test agent administration. Test solutions were aerosolized using a Raindrop nebulizer at a flowrate of eight liters per minute and connected to a dosimetry system consisting of a solenoid valve and a source of compressed air (20 psi). The deposited dose of drug in sheep lungs after an aerosol administration using the Raindrop nebulizer is estimated to be 8-15% of the dose. Using a Raindrop nebulizer, radiolabeled TSC was administered over approximately 3 minutes either 4 or 8 hours after drug treatment to evaluate efficacy/durability. Radioactive counts were measured in a central region in the right lung at 5 min intervals for one hour with a gamma camera. Three methods of analysis were utilized, 1) initial rate of clearance (slope) over the first 30 min fitted using linear regression 2) area under the curve for % clearance over time over one hour, and 3) the maximum clearance obtained in one hour.

[2] = canine bronchial epithelial cells, short-circuit current, read-out: Potency of Sodium Channel Blockade IC50

Compound | IC50 [1, 2] | effect on MCC compared to vehicle (Sheep MCC) | AUC (% Cl-h) (Sheep MCC) | Initial Slope (4.0-4.5 h) (Sheep MCC) | IC50 [1]
N=C(NCCCCc1ccc(C[C@H](N)C(=O)Nc2ccc(CCCCCCN(C[C@H](O)[C@@H](O)[C@H](O)[C@H](O)CO)C[C@H](O)[C@@H](O)[C@H](O)[C@H](O)CO)cc2)c2ccccc12)NC(=O)c1nc(Cl)c(N)nc1N [Compound 48, 3,5-diamino-N—(N-(4-(4-((S)-2-amino-3-(4-(6-(bis((2S,3R,4R,5R)-2,3,4,5,6-pentahydroxyhexyl)amino)hexyl)phenylamino)-3-oxopropyl)naphthalen-1-yl)butyl)carbamimidoyl)-6-chloropyrazine-2-carboxamide] | 47 nM | Similarly Enhance MCC Compared to Vehicle | 15.4* (2) % Cl-h | 29.8* (2) | –
N=C(NCCCCc1ccc2cc(C[C@H](N)C(=O)Nc3ccc(CCCN(C[C@H](O)[C@@H](O)[C@H](O)[C@H](O)CO)C[C@H](O)[C@@H](O)[C@H](O)[C@H](O)CO)cc3)ccc2c1)NC(=O)c1nc(Cl)c(N)nc1N [Compound 94, 3,5-diamino-N—(N-(4-(6-((S)-2-amino-3-(4-(3-(bis((2S,3R,4R,5R)-2,3,4,5,6-pentahydroxyhexyl)amino)propyl)phenylamino)-3-oxopropyl)naphthalen-2-yl)butyl)carbamimidoyl)-6-chloropyrazine-2-carboxamide] | 21.2 nM | – | – | – | –
CN(C)CCCCCCc1ccc(NC(=O)[C@@H](N)Cc2ccc(CCCCNC(=N)NC(=O)c3nc(Cl)c(N)nc3N)c3ccccc23)cc1 [Compound 43, (S)-3,5-diamino-N—(N-(4-(4-(2-amino-3-(4-(6-(dimethylamino)hexyl)phenylamino)-3-oxopropyl)naphthalen-1-yl)butyl)carbamimidoyl)-6-chloropyrazine-2-carboxamide] | 50.1 nM | – | – | – | –
NC(=NC(=O)c1nc(Cl)c(N)nc1N)NCCCCc1ccc(C[C@H](N)C(=O)Nc2ccc(CCCNC[C@H](O)[C@@H](O)[C@H](O)[C@H](O)CO)cc2)c2c1CCCC2 [Compound 131] | – | – | – | – | 6 nM
CCCCCCN(CCCCCCc1ccc(NC(=O)[C@@H](N)Cc2ccc(CCCCNC(=N)NC(=O)c3nc(Cl)c(N)nc3N)c3ccccc23)cc1)C[C@H](O)[C@@H](O)[C@H](O)[C@H](O)CO [Compound 58, 3,5-diamino-N—(N-(4-(4-((S)-2-amino-3-(4-(6-(hexyl((2S,3R,4R,5R)-2,3,4,5,6-pentahydroxyhexyl)amino)hexyl)phenylamino)-3-oxopropyl)naphthalen-1-yl)butyl)carbamimidoyl)-6-chloropyrazine-2-carboxamide] | 10.6 nM | – | – | – | –
CCCCCCN(CCCc1ccc(NC(=O)[C@@H](N)Cc2ccc(CCCCNC(=N)NC(=O)c3nc(Cl)c(N)nc3N)c3c2CCCC3)cc1)C[C@H](O)[C@@H](O)[C@H](O)[C@H](O)CO [Compound 123, 3,5-diamino-N—(N-(4-(4-((S)-2-amino-3-(4-(3-(hexyl((2S,3R,4R,5R)-2,3,4,5,6-pentahydroxyhexyl)amino)propyl)phenylamino)-3-oxopropyl)-5,6,7,8-tetrahydronaphthalen-1-yl)butyl)carbamimidoyl)-6-chloropyrazine-2-carboxamide] | 2.3 nM | Similarly Enhance MCC Compared to Vehicle | 14.4* (2) % Cl-h | 29.2* (2) | –
N=C(NCCCCc1ccc2cc(C[C@H](N)C(=O)Nc3ccc(CCCNC[C@H](O)[C@@H](O)[C@H](O)[C@H](O)CO)cc3)ccc2c1)NC(=O)c1nc(Cl)c(N)nc1N [Compound 99, 3,5-diamino-N—(N-(4-(6-((S)-2-amino-3-oxo-3-(4-(3-((2S,3R,4R,5R)-2,3,4,5,6-pentahydroxyhexylamino)propyl)phenylamino)propyl)naphthalen-2-yl)butyl)carbamimidoyl)-6-chloropyrazine-2-carboxamide] | 7.6 nM | – | – | – | –
N=C(NCCCCc1ccc(C[C@H](N)C(=O)Nc2ccc(CCCCCCNC[C@H](O)[C@@H](O)[C@H](O)[C@H](O)CO)cc2)c2ccccc12)NC(=O)c1nc(Cl)c(N)nc1N [Compound 53, 3,5-diamino-N—(N-(4-(4-((S)-2-amino-3-oxo-3-(4-(6-((2S,3R,4R,5R)-2,3,4,5,6-pentahydroxyhexylamino)hexyl)phenylamino)propyl)naphthalen-1-yl)butyl)carbamimidoyl)-6-chloropyrazine-2-carboxamide] | 15.5 nM | – | – | – | –
